Molecular target: T1, DDX3 (Homo sapiens, UniProt O00571)
T1 construct: gene DDX3X; full length, His-tagged DDX3
Experiment: SPR (Biacore T200) with immobilized purified His-DDX3; also malachite green ATPase inhibition at […]
Format: binding

T1 sequence (O00571 whole entry): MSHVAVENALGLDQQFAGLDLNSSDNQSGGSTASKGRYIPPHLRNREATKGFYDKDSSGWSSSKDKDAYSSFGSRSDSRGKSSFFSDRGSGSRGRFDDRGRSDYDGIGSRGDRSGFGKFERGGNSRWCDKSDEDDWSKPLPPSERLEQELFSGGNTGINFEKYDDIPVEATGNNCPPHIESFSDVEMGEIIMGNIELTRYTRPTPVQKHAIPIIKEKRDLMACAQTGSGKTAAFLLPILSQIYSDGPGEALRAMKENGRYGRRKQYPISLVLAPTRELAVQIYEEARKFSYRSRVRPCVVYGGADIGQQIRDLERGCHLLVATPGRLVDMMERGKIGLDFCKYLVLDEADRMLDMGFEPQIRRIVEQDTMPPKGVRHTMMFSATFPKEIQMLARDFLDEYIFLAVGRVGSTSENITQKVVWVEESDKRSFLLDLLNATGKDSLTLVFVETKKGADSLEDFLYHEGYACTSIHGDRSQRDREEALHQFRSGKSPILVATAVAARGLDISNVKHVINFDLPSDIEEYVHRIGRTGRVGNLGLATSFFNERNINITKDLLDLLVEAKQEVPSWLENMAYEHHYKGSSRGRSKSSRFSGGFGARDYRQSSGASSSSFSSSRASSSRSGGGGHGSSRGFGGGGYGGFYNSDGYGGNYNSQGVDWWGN

## O=C(/C=C/c1ccc(O)cc1)Nc1ccc(O)cc1C(=O)O [AVN A, Avenanthramide A]
  Kd: 8.8 µM
